ChEMBL document CHEMBL1151491 (Bioorg Med Chem Lett, 1995)

Columns and labels:
[1] = target: Muscarinic acetylcholine receptor M3 (Rattus norvegicus, UniProt P08483); test: Inhibition of binding of [3H]N-methylscopolamine to muscarinic receptor (M3) in rat submaxillary gland homogenates
[2] = target: T1, Muscarinic acetylcholine receptor M2 (Rattus norvegicus, UniProt P10980); test: Inhibition of binding of [3H]N-methylscopolamine to muscarinic receptor (M2) in rat heart homogenates; assay type: tissue-based
T1 sequence (P10980 whole entry): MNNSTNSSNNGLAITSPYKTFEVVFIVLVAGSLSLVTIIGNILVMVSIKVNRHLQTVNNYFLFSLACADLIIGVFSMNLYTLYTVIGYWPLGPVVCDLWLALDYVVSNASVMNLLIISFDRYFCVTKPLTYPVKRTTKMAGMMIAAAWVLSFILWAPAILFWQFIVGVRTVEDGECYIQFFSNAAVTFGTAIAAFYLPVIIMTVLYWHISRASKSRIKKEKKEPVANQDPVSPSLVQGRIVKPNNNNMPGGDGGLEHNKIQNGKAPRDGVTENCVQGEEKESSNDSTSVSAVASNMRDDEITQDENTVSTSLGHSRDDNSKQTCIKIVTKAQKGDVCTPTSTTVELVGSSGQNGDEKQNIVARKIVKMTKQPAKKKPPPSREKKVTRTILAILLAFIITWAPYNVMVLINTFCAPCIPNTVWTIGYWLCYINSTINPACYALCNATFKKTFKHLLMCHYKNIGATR

[3] = target: T2, Muscarinic acetylcholine receptor M4 (Rattus norvegicus, UniProt P08485); test: Inhibition of binding of [3H]N-methylscopolamine to Muscarinic acetylcholine receptor M4 in NG 108-15 cell homogenates; assay type: cell-free
T2 sequence (P08485 whole entry): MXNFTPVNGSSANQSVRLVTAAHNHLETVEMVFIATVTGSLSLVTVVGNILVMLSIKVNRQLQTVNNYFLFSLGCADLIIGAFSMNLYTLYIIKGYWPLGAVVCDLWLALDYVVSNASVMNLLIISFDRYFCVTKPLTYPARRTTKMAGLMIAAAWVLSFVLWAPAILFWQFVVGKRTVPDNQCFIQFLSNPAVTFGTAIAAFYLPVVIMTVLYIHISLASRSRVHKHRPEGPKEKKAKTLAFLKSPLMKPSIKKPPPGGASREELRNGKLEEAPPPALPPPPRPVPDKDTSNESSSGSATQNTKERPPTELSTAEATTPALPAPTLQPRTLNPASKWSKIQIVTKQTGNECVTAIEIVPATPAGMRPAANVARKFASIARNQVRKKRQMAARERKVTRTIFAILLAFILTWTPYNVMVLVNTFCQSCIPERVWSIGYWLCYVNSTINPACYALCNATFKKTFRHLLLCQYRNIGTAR

[4] = target: T3, Muscarinic acetylcholine receptor M1 (Rattus norvegicus, UniProt P08482); test: Inhibition of binding of [3H]pirenzepine to muscarinic receptor (M1) in rat cortex homogenates
T3 sequence (P08482 whole entry): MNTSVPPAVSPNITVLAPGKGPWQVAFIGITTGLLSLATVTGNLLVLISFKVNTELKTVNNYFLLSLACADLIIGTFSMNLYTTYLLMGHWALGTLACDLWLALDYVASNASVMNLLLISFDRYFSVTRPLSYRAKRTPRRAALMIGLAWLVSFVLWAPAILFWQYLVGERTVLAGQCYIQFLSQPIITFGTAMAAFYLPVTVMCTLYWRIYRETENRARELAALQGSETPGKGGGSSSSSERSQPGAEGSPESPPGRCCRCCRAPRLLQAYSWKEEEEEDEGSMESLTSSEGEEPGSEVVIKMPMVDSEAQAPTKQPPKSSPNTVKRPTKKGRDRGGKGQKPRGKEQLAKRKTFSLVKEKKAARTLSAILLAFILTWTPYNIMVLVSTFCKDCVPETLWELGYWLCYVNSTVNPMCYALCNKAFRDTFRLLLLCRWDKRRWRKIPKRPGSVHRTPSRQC

Muscarinic acetylcholine receptor M3, sequence (P08483 whole entry): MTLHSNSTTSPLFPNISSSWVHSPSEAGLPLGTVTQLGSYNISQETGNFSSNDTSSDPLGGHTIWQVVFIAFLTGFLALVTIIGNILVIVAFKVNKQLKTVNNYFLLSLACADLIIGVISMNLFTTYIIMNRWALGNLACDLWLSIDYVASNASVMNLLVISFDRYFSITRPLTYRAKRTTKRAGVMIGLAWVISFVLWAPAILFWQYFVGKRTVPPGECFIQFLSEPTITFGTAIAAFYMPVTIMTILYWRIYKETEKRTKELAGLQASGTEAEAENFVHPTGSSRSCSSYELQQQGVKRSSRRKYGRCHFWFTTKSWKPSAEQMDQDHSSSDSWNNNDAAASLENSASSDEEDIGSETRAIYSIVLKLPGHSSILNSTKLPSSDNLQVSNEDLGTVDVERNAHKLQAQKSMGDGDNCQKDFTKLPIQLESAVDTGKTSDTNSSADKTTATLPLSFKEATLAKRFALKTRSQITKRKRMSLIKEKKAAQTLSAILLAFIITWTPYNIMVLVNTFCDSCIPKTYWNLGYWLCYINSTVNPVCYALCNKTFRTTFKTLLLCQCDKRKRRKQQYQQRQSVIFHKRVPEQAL

Row | SMILES | Ki [1] [nM] | Ki [2] [nM] | Ki [3] [nM] | Ki [4] [nM]
1 | CN(CCCCCCCCN(C)CCCCCCN1CCC2(CC1)OC(=O)C(c1ccccc1)(c1ccccc1)O2)CCCCCCN1CCC2(CC1)OC(=O)C(c1ccccc1)(c1ccccc1)O2 [SPIROTRAMINE] | 977 | 631 | 537 | 13.2
3 | CN(CCCCCCCCN(C)CCCCCCN1CCC(OC(=O)C(c2ccccc2)c2ccccc2)CC1)CCCCCCN1CCC(OC(=O)C(c2ccccc2)c2ccccc2)CC1 | 2140 | 182 | 39.8 | 75.9
